Test results as given in US20260200890A1, “ADAR1 INHIBITORS AND METHODS OF USING THE SAME” (AVAMMUNE THERAPEUTICS INC., priority 2022, published 2026).

These compounds were tested against T1, ADAR1 (Homo sapiens, UniProt P55265) (assay: ADAR1 Inhibition Assay (IFN fold-induction, Quanti-Luc luminescence, p110 KO A549 dual cells)). Details: IFN fold-induction vs DMSO, 24 and 48 h.
T1 construct: endogenous in cells; host or cells: p110 KO A549 dual cells
T1 sequence (P55265 1-1226): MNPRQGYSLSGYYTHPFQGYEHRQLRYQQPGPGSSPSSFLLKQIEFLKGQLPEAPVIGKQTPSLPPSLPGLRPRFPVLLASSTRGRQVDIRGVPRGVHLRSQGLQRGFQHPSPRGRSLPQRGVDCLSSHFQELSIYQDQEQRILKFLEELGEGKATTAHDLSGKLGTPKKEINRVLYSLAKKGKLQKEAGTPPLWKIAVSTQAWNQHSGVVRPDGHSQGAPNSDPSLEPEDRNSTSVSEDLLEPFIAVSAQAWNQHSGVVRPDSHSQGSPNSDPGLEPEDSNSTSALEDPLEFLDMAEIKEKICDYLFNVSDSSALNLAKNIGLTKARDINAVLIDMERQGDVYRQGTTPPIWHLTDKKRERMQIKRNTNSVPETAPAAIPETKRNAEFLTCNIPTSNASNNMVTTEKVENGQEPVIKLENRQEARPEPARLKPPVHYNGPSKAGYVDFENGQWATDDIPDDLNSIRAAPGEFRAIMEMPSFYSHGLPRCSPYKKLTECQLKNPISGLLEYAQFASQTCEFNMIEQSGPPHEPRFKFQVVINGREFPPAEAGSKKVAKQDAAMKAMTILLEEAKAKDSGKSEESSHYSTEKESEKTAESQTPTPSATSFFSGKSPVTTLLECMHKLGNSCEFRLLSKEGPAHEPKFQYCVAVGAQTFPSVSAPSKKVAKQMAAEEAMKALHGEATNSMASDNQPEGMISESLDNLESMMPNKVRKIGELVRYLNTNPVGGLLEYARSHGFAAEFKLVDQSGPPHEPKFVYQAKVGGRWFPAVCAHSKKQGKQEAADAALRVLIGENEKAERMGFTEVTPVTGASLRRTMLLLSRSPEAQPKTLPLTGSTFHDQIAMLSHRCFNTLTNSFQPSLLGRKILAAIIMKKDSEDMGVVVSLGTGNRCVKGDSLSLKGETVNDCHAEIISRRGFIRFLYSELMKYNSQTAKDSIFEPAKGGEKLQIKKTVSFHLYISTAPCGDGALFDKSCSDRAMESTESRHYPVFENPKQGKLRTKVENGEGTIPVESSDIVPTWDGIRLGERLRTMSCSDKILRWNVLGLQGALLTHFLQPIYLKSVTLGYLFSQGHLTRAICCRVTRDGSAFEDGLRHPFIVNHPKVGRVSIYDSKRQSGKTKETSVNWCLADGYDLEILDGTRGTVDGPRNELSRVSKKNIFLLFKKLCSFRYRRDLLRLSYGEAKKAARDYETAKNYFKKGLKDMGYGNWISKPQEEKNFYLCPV
Type: cell-based
Protocol: An ADAR1 Inhibition Assay was used to determine the biological activity (EC50) of compounds disclosed herein. 100 μL of p110 KO A549 dual cell suspension in supplemented DMEM (20,000 cells per well) was added into a flat bottom 96 well plate. Next day, post media change, 180 μL of supplemented DMEM was added. 20 μL of test compound or positive control was added to the respective wells (Final concentration of DMSO is 1%). The plate was incubated for 24 and 48 hours at 37° C. in a 5% CO2 incubator. After 24 and 48 h, 20 μL of cell suspension was taken in black well plates and 50 μL of Quanti-Luc was added to each well and luminescence was measured using a microplate reader (Spectra Max). IFN fold-induction was plotted considering DMSO as control using the relative luminescence unit (RLU) values. (Fold induction: Sample RLU/Average DMSO RLU).

Compound | EC50
CCOC(=O)c1cc(-c2ccccc2)sc1NC(=O)CNC(=O)c1cccc(S(=O)(=O)N(C)C)c1 [Compound 4] | > 100 µM
CCOC(=O)c1cc(-c2ccccc2)sc1NC(=O)COC(=O)c1cccc(S(=O)(=O)N(C)C)c1 [Compound 7] | > 100 µM
CCOC(=O)c1cc(-c2ccccc2)sc1NC(=O)CNc1cccc(S(N)(=O)=O)c1 [Compound 8] | > 100 µM
CCOC(=O)c1cc(-c2ccccc2)sc1NC(=O)c1cccc(S(N)(=O)=O)c1 [Compound 10] | > 100 µM
CCOC(=O)c1cc(-c2ccccc2)sc1NC(=O)CNC(=O)c1cccc(S(=O)(=O)NC)c1 [Compound 11] | > 100 µM
CCOC(=O)c1cc(-c2ccccc2)sc1NC(=O)CNC(=O)c1ccc(Br)s1 [Compound 16] | > 100 µM
CCOC(=O)c1cc(-c2ccccc2)sc1NC(=O)CN(C)C [Compound 17] | > 100 µM
NS(=O)(=O)c1cccc(C(=O)NCC(=O)Nc2ccc(-c3ccccc3)s2)c1 [Compound 18] | > 100 µM
NS(=O)(=O)c1cccc(NC(=O)CNC(=O)c2ccc(-c3cccnc3)s2)c1 [Compound 19] | > 100 µM
NS(=O)(=O)c1cccc(NC(=O)CNC(=O)c2csc(-c3cccnc3)n2)c1 [Compound 20] | > 100 µM
COC(=O)c1ccsc1NC(=O)CNC(=O)c1cccc(S(N)(=O)=O)c1 [Compound 22] | > 100 µM
NS(=O)(=O)c1cccc(C(=O)NCC(=O)Nc2nc3ccccc3s2)c1 [Compound 23] | > 100 µM
CCOC(=O)c1cc(-c2ccccc2)sc1NC(=O)CNC(=O)c1ccc(S(N)(=O)=O)cc1 [Compound 24] | > 100 µM
NS(=O)(=O)c1cccc(NC(=O)c2csc(-c3ccccc3)c2)c1 [Compound 25] | > 100 µM
CCOC(=O)c1cc(-c2ccccc2)sc1NC(=O)CNS(=O)(=O)c1ccc(C)cc1 [Compound 27] | > 100 µM
NS(=O)(=O)c1cccc(NC(=O)CNC(=O)c2csc(-c3ccccc3)c2)c1 [Compound 30] | > 100 µM
CCOC(=O)c1cc(-c2ccccc2)sc1NC(=O)CNC(=O)c1ccc(F)c(S(N)(=O)=O)c1 [Compound 31] | > 100 µM
NS(=O)(=O)c1cccc(NC(=O)Cn2nnc(-c3ccccn3)n2)c1 [Compound 32] | > 100 µM

Compound | EC50
COC(=O)c1cc(-c2ccncc2)sc1NC(=O)c1cccc(S(N)(=O)=O)c1 [Compound 33] | > 100 µM
Cc1cccc(Cl)c1NC(=O)c1csc(NC(=O)c2cccc(S(N)(=O)=O)c2)n1 [Compound 35] | > 100 µM
CCOC(=O)c1cc(-c2ccccc2)sc1NC(=O)CNC(=O)c1cccc(S(=O)(=O)N2CCCCC2)c1 [Compound 36] | > 100 µM
COC(=O)c1cc(-c2ccncc2)sc1NC(=O)CNC(=O)c1cccc(S(N)(=O)=O)c1 [Compound 38] | > 100 µM
NS(=O)(=O)c1cccc(C(=O)NCC(=O)Nc2ccc3cc(Br)ccc3c2)c1 [Compound 43] | > 100 µM
CCOC(=O)c1cc(-c2ccccc2)sc1NC(=O)CNC(=O)c1cccc(S(=O)(=O)N2CCNCC2)c1 [Compound 47] | > 100 µM
Cc1nc(-c2ccccc2)sc1C(=O)NCC(=O)Nc1cccc(S(N)(=O)=O)c1 [Compound 48] | > 100 µM
NS(=O)(=O)c1cccc(C(=O)NCC(=O)Nc2nnc(-c3ccccc3)s2)c1 [Compound 49] | > 100 µM
CCOC(=O)c1cc(-c2ccccc2)sc1NC(=O)COC(=O)c1cccc(C(N)=O)c1 [Compound 50] | > 100 µM
CCOC(=O)c1cc(-c2ccccc2)sc1NC(=O)c1cccc(S(=O)(=O)NC)c1 [Compound 55] | > 100 µM
CCOC(=O)c1cc(-c2ccccc2)sc1NC(=O)CNC(=O)c1cc(S(N)(=O)=O)ccc1F [Compound 56] | > 100 µM
COC(=O)c1nc(NC(=O)COC(=O)c2cccc(S(N)(=O)=O)c2)sc1-c1ccccc1 [Compound 57] | > 100 µM
CCOC(=O)c1cc(-c2ccccc2)sc1NC(=O)CNS(=O)(=O)c1cccc(CO)c1 [Compound 61] | > 100 µM
CCOC(=O)c1cc(-c2ccccc2)sc1NC(=O)COC(=O)c1cccc(OC(F)(F)F)c1 [Compound 63] | > 100 µM
CCOC(=O)c1cc(-c2ccccc2)sc1NC(=O)COC(=O)c1cccc(S(C)(=O)=O)c1 [Compound 65] | > 100 µM
CCOC(=O)c1cc(-c2ccccc2)sc1NC(=O)COC(=O)c1ccc(F)c(S(N)(=O)=O)c1 [Compound 69] | > 100 µM
CCOC(=O)c1cc(-c2ccc(OC(F)(F)F)cc2)sc1NC(=O)COC(=O)c1cccc(S(N)(=O)=O)c1 [Compound 73] | > 100 µM
CCOC(=O)c1cc(-c2ccccc2)sc1NC(=O)COC(=O)c1ccc(Cl)c(S(N)(=O)=O)c1 [Compound 74] | > 100 µM

Second part, the compound after the results:

EC50 | Compound
> 100 µM | CCOC(=O)c1c(-c2ccccc2)csc1NC(=O)COC(=O)c1cccc(S(N)(=O)=O)c1 [Compound 3]
> 100 µM | CCOC(=O)c1cc(-c2ccccc2)sc1NC(=O)COC(=O)c1ccccc1 [Compound 5]
> 100 µM | CCOC(=O)c1cc(-c2ccccc2)sc1NC(=O)CNC(=O)c1ccccc1 [Compound 6]
> 100 µM | COC(=O)c1nc(NC(=O)COC(=O)c2cccc(S(N)(=O)=O)c2)sc1Br [Compound 9]
> 100 µM | CCOC(=O)c1cc(-c2ccccc2)sc1NC(=O)CN [Compound 12]
> 100 µM | CCOC(=O)c1cc(-c2ccccc2)sc1NC(=O)CNCCS(N)(=O)=O [Compound 14]
> 100 µM | CCOC(=O)c1cc(-c2ccccc2)sc1NC(=O)CNc1cccc(S(=O)(=O)N(C)C)c1 [Compound 15]
> 100 µM | CCOC(=O)c1cc(-c2ccccc2)sc1NC(=O)Nc1cccc(S(N)(=O)=O)c1 [Compound 21]
> 100 µM | CCOC(=O)c1cc(-c2ccccc2)sc1NC(=O)CNC(=O)c1cccc(S(=O)(=O)N2CCOCC2)c1 [Compound 28]
> 100 µM | CCOC(=O)c1cc(-c2ccccc2)sc1NC(=O)CNC(=O)c1cccc(S(=O)(=O)N2CCCC2)c1 [Compound 29]
> 100 µM | CCOC(=O)c1cc(-c2ccccc2)sc1NC(=O)COC(=O)c1cc(S(N)(=O)=O)ccc1F [Compound 37]
> 100 µM | NS(=O)(=O)c1cccc(NC(=O)CNC(=O)c2ccc(-c3ccccc3)s2)c1 [Compound 40]
> 100 µM | CCOC(=O)c1cc(-c2ccccc2)sc1NC(=O)CNC(=O)c1cccc(S(=O)(=O)NC(C)C)c1 [Compound 41]
> 100 µM | CCOC(=O)c1cc(-c2cc(F)cc(F)c2)sc1NC(=O)COC(=O)c1cccc(S(N)(=O)=O)c1 [Compound 52]
> 100 µM | CCOC(=O)c1cc(-c2ccccc2)sc1NC(=O)CNC(=O)c1cc(S(N)(=O)=O)ccc1C [Compound 53]
> 100 µM | CCOC(=O)c1c(NC(=O)COC(=O)c2cccc(S(N)(=O)=O)c2)sc(C)c1C [Compound 54]
> 100 µM | CCOC(=O)c1cc(-c2ccccc2)sc1NC(=O)COC(=O)c1cccc(S(=O)(=O)N2CCOCC2)c1 [Compound 58]
> 100 µM | CCOC(=O)c1cc(-c2ccccc2)sc1NC(=O)COC(=O)c1cccc(S(=O)(=O)N2CCC(N)C2)c1 (stereo not drawn) [Compound 59]
> 100 µM | CCOC(=O)c1cc(-c2ccccc2)sc1NC(=O)COC(=O)c1cccc(O)c1 [Compound 60]
≤ 25 µM | CCOC(=O)c1cc(-c2ccccc2)sc1NC(=O)COC(=O)c1cccc(C(C)=O)c1 [Compound 64]
> 100 µM | CCOC(=O)c1cc(-c2ccccc2)sc1NC(=O)COC(=O)c1ccc(S(N)(=O)=O)cc1 [Compound 68]
